# Source: patent US7186886B2, “Aliphatic acyl transferase genes” (International Flower Developments Proprietary Limited, priority 2000, dated 2007)
# Legend:
# [1] = Colour of anthocyanin solutions in McIlvaine buffer evaluated with Colour charts (Royal Horticulture Society); format: physicochemical; details: for Number in Colour chart at pH 5.3: McIlvaine buffer pH 5.3; for Number in Colour chart at pH 5.3 / Number in Colour chart at pH 5.6 / Number in Colour chart at pH 6.0: greater number = bluer, A = bluest within a number; for Number in Colour chart at pH 5.6: McIlvaine buffer pH 5.6; for Number in Colour chart at pH 6.0: McIlvaine buffer pH 6.0
# Experimental: Delphinidin 3,5-diglucoside, awobanin (delphinidin 3-(coumaroyl) glucoside-5-glucoside), malonyl-awobanin (delphinidin 3-(coumaroyl)glucoside-5-(malonyl) glucoside) were dissolved in McIlvaine buffer (pH 5.3, pH 5.6, pH 6.0) in concentrations of 0.1 mM, 0.3 mM, 0.5 mM, respectively, and colours of the solutions were evaluated using Colour charts (Royal Horticulture Society). Delphinidin 3,5-diglucoside can be obtained from its 3,5-diacetylglucoside form by removing the acetyl portion in alkaline hydrolysis reaction (Tetrahedron, 48, 4313–4326, 1992). Awobanin can be obtained from malonyl-awobanin by removing its 5-malonyl portion (Tetrahedron Lett. 24, 4863–4866, 1983). Malonyl-awobanin was obtained by extraction from plants using the method as set forth in Tetrahedron Lett. 24, 4863–4866, 1983. The greater the number in the Colour chart, the bluer the colour is. When the number is the same, symbol A represents the bluest colour.
# [2] = Malonyl transferase activity of E. coli-expressed gene product, shisonin as substrate, HPLC detection; format: biochemical
# Experimental: Measurement of activity of malonyl transferase was conducted using reaction solution 100 μl (potassium phosphate of final concentration of 20 mM, pH 7.0, containing shisonin 10 μg, malonyl CoA 10 μg, and an enzyme sample to be measured, dissolved in 0.01% trifluoro acetic acid). After reaction was carried out at 30° C. for 20 minutes, the reaction was terminated by adding 200 μl of 0.05% TFA aqueous solution cooled on ice. Quantification of shisonin and malonyl-shisonin was conducted by reverse phase high performance liquid chromatography (DYNAMAX HPLC system) using a Shodex Asahipak ODP-50 4E column, and using a linear concentration gradient with 0.5% TFA solution as the solution and 0.5% TFA, 50% acetonitrile aqueous solution as the solution, such that concentration of the B solution was 45%, 45%, 55%, 100%, 100%, 45%, and 45%, at time 0, 3, 17, 18, 23, 24, and 30 minutes, respectively, after the start of separation, at a flow rate of 0.7 ml/min, using 50 μl of reaction solution, monitoring absorption at 520 nm. […]
# Enzyme activity was measured using a supernatant (soluble fraction) obtained after centrifuging. […]
# As in Example 7, using a plasmid constructed such that the PfMaT1 gene obtained in Example 9 can be expressed as a fusion protein fused with LacZ protein, the PfMaT1 gene was expressed in Escherichia coli as in Example 7, and enzyme activity was measured. […]
Molecule,Number in Colour chart at pH 5.3 ([1]; 0.1 mM),Number in Colour chart at pH 5.6 ([1]; 0.1 mM),Number in Colour chart at pH 6.0 ([1]; 0.1 mM),Number in Colour chart at pH 5.3 ([1]; 0.3 mM),Number in Colour chart at pH 6.0 ([1]; 0.3 mM),Number in Colour chart at pH 5.6 ([1]; 0.3 mM),Number in Colour chart at pH 5.3 ([1]; 0.5 mM),Number in Colour chart at pH 6.0 ([1]; 0.5 mM),"Colour of solution compared among the three anthocyanins ([1]; all concentrations and pH, versus delphinidin 3,5-diglucoside and awobanin)",Number in Colour chart at pH 5.6 ([1]; 0.5 mM),"Acyl transfer to shisonin with other acyl CoA substrates (new HPLC peak) ([2]; acetyl CoA, methylmalonyl CoA, or succinyl CoA in place of malonyl CoA)","Malonyl transferase activity (formation of malonyl-shisonin) ([2]; shisonin and malonyl CoA, 30° C., 20 minutes, pH 7.0, soluble extract of expressing Escherichia coli)"
"O=C(/C=C/c1ccc(O)cc1)OC[C@H]1O[C@@H](Oc2cc3c(O[C@@H]4O[C@H](CO)[C@@H](O)[C@H](O)[C@H]4O)cc(O)cc3[o+]c2-c2cc(O)c(O)c(O)c2)[C@H](O)[C@@H](O)[C@@H]1O [Awobanin, delphinidin 3-(coumaroyl) glucoside-5-glucoside]",85C,85A,91B,86D,91A,–,–,–,–,–,–,–
"O=C(O)CC(=O)OC[C@H]1O[C@@H](Oc2cc(O)cc3[o+]c(-c4cc(O)c(O)c(O)c4)c(O[C@@H]4O[C@H](COC(=O)/C=C/c5ccc(O)cc5)[C@@H](O)[C@H](O)[C@H]4O)cc23)[C@H](O)[C@@H](O)[C@@H]1O [Malonyl-awobanin, delphinidin 3-(coumaroyl)glucoside-5-(malonyl) glucoside]",85C,91B,91B,92A,96C,93B,93B,96A,the bluest,–,–,–
"OC[C@H]1O[C@@H](Oc2cc3c(O[C@@H]4O[C@H](CO)[C@@H](O)[C@H](O)[C@H]4O)cc(O)cc3[o+]c2-c2cc(O)c(O)c(O)c2)[C@H](O)[C@@H](O)[C@@H]1O [Delphinidin 3,5-diglucoside]",84C,84C,–,85A,88C,86D,86D,88B/C,–,90B,–,–
"SsMaT1: Salvia splendens malonyl transferase gene product (SEQ ID NO: 23), expressed in E. coli from pQE-30Xa-SsMaT1 (protein, listed as Salvia splendens, possible His tag from pQE-30Xa) TTTTILETCHIPPPPAANDLSIPLSFFDIKWLHYHPVRRLLFYHHPSSKSQFLHTIVPHLKQSLSLALTHYLPVAGNLLYPSNTEKFPQLRYAAGDSVPVTIAESNSDFESLTGNHTRDADQFYDLLPPIPPIEEESDWKLINIFAVQITLFPGEGICIGFSNHHCLGDASSIVGFISAWGEINGIGGYEGFLSNHSDSLSLPIFDRSFINDPNKIDAIFWKVLSNMPLKTASFPLPTNSVSSTFLLRSSDIEKLKTATKSPASSFVAAAAFVWSCMVKSGDKSDENAPELFIMPADASGSVDPPMPENYFGNCIVSSVAQVERGKLAAEDGFAVAAEAIGGEIEGKLKNSDEILSGAENWMSDMFKCFGMSVLGVSGSPKFDLLKADFGWGKASKLEVLSIDGENHSMSLCSSSDFNGGLEVGLSLPSESMAAFEEVFSASMMAASGPASRSPALVEPL",–,–,–,–,–,–,–,–,–,–,a new peak in addition to shisonin was observed,malonyl-shisonin was produced
